Reference: US11072614B2, “Polymorphs of sepiapterin and salts thereof” (PTC Therapeutics MP, Inc., priority 2016, dated 2021)

Key:
Format in all cases: physicochemical
[1] = Storage stability study of solid forms, HPLC purity (Example 11); details: 10% RH
Protocol: (§1) Form A and F samples were placed in chambers with silica gel to remove water (the relative humidity was measured to be ˜10% RH) at different temperatures. Form D samples were placed in chambers with water (relative humidity was estimated to be ˜100% RH) at different temperatures.
(§2) The HPLC purities and XRD patterns were obtained for each of Form A/F/D samples stored at various temperatures.

[2] = Storage stability study of solid forms, form change by XRD (Example 11); details: 10% RH
Protocol: For X-ray powder diffraction analysis, a PANalytical Empyrean X-ray powder diffractometer was used. The parameters are as follows:
as §1, §2

[3] = Physical form stability to grinding and sieving (XRD before and after)
Protocol: A sample of sepiapterin free base was obtained commercially. […] The sepiapterin sample contained particles with an average particle size over 100 μm. The XRD pattern was determined before and after grinding to reduce the particle size such that it passes through a 140 mesh screen. This polymorph of sepiapterin free base is referred to as Form A herein.

[4] = Storage stability of polymorphs, HPLC sepiapterin and impurity profile (Example 12); set-up: Impurity RRT 1.06 / Impurity RRT 1.08 / Impurity RRT 1.17 / Impurity RRT 1.21 / Impurity RRT 1.25 / Impurity RRT 0.62 / Impurity RRT 0.89 / Impurity RRT 0.95 / Impurity RRT 0.60: unit not given here
Protocol: Samples of sepiapterin free base polymorph Forms D, F, and A were stored at room temperature (RT), 35° C., and 50° C. The samples were analyzed by HPLC at 1 week and 4 week intervals. The HPLC parameters were as follows: [table]

[5] = 35° C./10% RH, 1 w, listed as Polymorph F
[6] = 35° C./10% RH, 4 w, listed as Polymorph F
[7] = 50° C./10% RH, 1 w, listed as Polymorph F
[8] = 50° C./10% RH, 4 w, listed as Polymorph F
[9] = RT/10% RH, 1 w, listed as Polymorph F
[10] = RT/10% RH, 4 w, listed as Polymorph F

% of Initial ([1]; 35° C., storage 1 week): 99.7%
Purity (area %) ([1]; 35° C., storage 1 week): 99.4 area %
% of Initial ([1]; 35° C., storage 4 weeks): 99.7%
Purity (area %) ([1]; 35° C., storage 4 weeks): 99.4 area %
% of Initial ([1]; 50° C., storage 1 week): 99.4%
Purity (area %) ([1]; 50° C., storage 1 week): 99.2 area %
% of Initial ([1]; 50° C., storage 4 weeks): 99.1%
Purity (area %) ([1]; 50° C., storage 4 weeks): 98.9 area %
% of Initial ([1]; RT, storage 1 week): 99.7%
Purity (area %) ([1]; RT, storage 1 week): 99.4 area %
% of Initial ([1]; RT, storage 4 weeks): 99.8%
Purity (area %) ([1]; RT, storage 4 weeks): 99.5 area %
Form change ([2]; 35° C., storage 1 week): No
Form change ([2]; 35° C., storage 4 weeks): No
Form change ([2]; 50° C., storage 1 week): No
Form change ([2]; 50° C., storage 4 weeks): No
Form change ([2]; RT, storage 1 week): No
Form change ([2]; RT, storage 4 weeks): No
physical form stability to grinding and sieving [3]: confirms the stability
Impurity RRT 0.60 ([4]; 35° C./10% RH, 1 w): <0.05
Impurity RRT 0.95 [4, 5]: 0.35
Impurity RRT 1.08 [4, 5]: 0.06
Impurity RRT 1.17 [4, 5]: 0.15
Sepiapterin RRT 1.00 (amount of sepiapterin) [4, 5]: 99.43%
Impurity RRT 0.60 ([4]; 35° C./10% RH, 4 w): <0.05
Impurity RRT 1.08 ([4]; 35° C./10% RH, 4 w): <0.05
Impurity RRT 0.95 [4, 6]: 0.42
Impurity RRT 1.17 [4, 6]: 0.15
Sepiapterin RRT 1.00 (amount of sepiapterin) [4, 6]: 99.43%
Impurity RRT 0.60 ([4]; 50° C./10% RH, 1 w): <0.05
Impurity RRT 0.95 [4, 7]: 0.58
Impurity RRT 1.08 [4, 7]: 0.11
Impurity RRT 1.17 [4, 7]: 0.15
Sepiapterin RRT 1.00 (amount of sepiapterin) [4, 7]: 99.15%
Impurity RRT 0.60 ([4]; 50° C./10% RH, 4 w): 0.12
Impurity RRT 1.17 ([4]; 50° C./10% RH, 4 w): 0.17
Impurity RRT 0.95 [4, 8]: 0.86
Impurity RRT 1.08 [4, 8]: <0.05
Sepiapterin RRT 1.00 (amount of sepiapterin) [4, 8]: 98.85%
Sepiapterin RRT 1.00 (amount of sepiapterin) ([4]; 50° C./10% RH, 4 w, listed as polymorph F): 98.85%
Impurity RRT 0.60 ([4]; Initial): <0.05
Impurity RRT 1.08 ([4]; Initial): <0.05
Impurity RRT 1.17 ([4]; Initial): 0.17
Impurity RRT 0.95 ([4]; Initial, listed as Polymorph F): 0.09
Sepiapterin RRT 1.00 (amount of sepiapterin) ([4]; Initial, listed as Polymorph F): 99.74%
Sepiapterin RRT 1.00 (amount of sepiapterin) ([4]; Initial, listed as polymorph F): 99.74%
Impurity RRT 0.60 ([4]; RT/10% RH, 1 w): <0.05
Impurity RRT 1.17 ([4]; RT/10% RH, 1 w): 0.16
Impurity RRT 0.95 [4, 9]: 0.29
Impurity RRT 1.08 [4, 9]: 0.14
Sepiapterin RRT 1.00 (amount of sepiapterin) [4, 9]: 99.42%
Impurity RRT 0.60 ([4]; RT/10% RH, 4 w): <0.05
Impurity RRT 1.08 ([4]; RT/10% RH, 4 w): <0.05
Impurity RRT 1.17 ([4]; RT/10% RH, 4 w): 0.16
Impurity RRT 0.95 [4, 10]: 0.30
Sepiapterin RRT 1.00 (amount of sepiapterin) [4, 10]: 99.54%
stability compared with polymorph A (in words) ([4]; storage at RT, 35° C., 50° C., 1 w and 4 w): significantly greater stability
Compound: C[C@H](O)C(=O)C1=Nc2c(nc(N)[nH]c2=O)NC1 [Form F, sepiapterin]
